Results taken from ChEMBL document CHEMBL1139078, “ortho-Substituted azoles as selective and dual inhibitors of VEGF receptors 1 and 2” (Bioorg Med Chem Lett, 2007).

Target: T1, Vascular endothelial growth factor receptor 1 (Homo sapiens, UniProt P17948)
Assay: Inhibition of VEGFR1 by HTRF assay
Settings: not given
Target sequence in this assay (P17948 whole entry): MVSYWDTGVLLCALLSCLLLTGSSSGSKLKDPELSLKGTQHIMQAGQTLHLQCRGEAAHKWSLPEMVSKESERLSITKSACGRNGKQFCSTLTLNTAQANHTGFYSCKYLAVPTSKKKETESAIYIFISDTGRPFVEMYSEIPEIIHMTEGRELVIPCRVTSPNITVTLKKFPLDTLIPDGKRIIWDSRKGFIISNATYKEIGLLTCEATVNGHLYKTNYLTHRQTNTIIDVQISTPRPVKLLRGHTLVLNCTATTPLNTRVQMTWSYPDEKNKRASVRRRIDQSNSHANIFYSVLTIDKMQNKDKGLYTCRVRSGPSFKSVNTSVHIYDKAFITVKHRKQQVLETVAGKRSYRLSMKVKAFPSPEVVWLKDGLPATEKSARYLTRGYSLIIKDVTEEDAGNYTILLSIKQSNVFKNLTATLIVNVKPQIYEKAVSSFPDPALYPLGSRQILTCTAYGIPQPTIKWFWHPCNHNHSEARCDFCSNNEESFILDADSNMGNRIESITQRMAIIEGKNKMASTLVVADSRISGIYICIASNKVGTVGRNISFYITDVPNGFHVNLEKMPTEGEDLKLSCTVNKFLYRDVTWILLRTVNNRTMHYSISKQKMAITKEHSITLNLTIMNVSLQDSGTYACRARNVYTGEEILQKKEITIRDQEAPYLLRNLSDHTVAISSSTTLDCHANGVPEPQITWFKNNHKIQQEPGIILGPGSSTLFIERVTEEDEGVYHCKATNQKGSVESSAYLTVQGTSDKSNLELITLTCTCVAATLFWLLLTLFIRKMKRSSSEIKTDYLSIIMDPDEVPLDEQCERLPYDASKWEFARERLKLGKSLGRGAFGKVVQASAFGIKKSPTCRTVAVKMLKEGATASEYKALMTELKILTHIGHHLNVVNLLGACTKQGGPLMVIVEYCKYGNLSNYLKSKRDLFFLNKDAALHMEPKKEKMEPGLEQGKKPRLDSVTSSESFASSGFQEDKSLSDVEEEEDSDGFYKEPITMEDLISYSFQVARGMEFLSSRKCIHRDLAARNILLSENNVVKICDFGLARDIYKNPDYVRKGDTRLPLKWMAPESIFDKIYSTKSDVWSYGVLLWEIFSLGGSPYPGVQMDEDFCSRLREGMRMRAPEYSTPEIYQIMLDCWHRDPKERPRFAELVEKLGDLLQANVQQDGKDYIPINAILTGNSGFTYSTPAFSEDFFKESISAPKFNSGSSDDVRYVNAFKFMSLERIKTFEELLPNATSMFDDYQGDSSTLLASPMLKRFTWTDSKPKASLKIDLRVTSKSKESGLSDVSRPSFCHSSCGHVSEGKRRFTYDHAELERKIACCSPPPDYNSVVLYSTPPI

Compound	IC50 [nM]
Cn1cnc(NCc2ccc3c(c2)OCO3)c1C(=O)Nc1cccc(C(F)(F)F)c1	2270
Cn1ncc(NCc2ccc3c(c2)OCO3)c1C(=O)Nc1cccc(C(F)(F)F)c1	5290
Cn1cnc(NCc2ccc3c(c2)OCO3)c1C(=O)Nc1ccc(C(F)(F)F)cc1	1680

Target: T2, Vascular endothelial growth factor receptor 2 (Homo sapiens, UniProt P35968)
Assay: Inhibition of VEGFR2 by HTRF assay
Settings: not given

T2 sequence (P35968 whole entry): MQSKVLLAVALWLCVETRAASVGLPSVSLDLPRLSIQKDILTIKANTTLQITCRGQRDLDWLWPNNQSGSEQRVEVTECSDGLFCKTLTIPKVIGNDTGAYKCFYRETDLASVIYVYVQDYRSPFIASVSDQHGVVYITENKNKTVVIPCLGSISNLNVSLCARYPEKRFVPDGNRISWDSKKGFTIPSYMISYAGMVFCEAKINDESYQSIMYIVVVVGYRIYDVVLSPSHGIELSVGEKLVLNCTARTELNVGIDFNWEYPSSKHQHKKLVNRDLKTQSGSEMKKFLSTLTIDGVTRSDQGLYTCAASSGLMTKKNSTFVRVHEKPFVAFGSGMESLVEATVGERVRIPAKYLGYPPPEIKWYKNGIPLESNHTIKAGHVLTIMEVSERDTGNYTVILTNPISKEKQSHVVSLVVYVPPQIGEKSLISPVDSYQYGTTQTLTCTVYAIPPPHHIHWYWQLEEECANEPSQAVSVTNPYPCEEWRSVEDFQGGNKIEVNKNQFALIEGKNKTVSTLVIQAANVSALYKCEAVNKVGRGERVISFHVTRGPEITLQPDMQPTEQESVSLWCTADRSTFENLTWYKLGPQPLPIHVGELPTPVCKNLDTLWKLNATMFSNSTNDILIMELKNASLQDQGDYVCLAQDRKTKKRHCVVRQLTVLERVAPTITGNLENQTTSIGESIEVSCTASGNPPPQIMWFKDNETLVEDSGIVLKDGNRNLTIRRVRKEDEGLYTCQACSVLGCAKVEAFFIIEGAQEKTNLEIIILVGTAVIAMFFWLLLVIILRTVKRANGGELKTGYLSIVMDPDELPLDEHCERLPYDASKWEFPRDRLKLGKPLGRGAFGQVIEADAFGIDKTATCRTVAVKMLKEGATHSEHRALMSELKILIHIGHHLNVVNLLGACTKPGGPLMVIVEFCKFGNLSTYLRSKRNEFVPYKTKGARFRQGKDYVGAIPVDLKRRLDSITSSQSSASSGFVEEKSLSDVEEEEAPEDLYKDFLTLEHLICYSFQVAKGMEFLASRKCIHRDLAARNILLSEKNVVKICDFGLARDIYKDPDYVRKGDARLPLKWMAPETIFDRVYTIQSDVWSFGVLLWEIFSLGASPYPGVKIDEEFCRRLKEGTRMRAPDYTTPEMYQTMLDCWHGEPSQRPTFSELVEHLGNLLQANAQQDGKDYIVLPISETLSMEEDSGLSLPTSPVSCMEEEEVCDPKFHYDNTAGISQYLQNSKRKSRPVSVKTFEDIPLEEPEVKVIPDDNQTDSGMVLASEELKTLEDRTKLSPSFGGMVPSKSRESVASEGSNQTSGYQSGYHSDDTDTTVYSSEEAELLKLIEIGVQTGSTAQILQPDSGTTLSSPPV

Compound	IC50 [nM]
Cn1cnc(NCc2ccc3c(c2)OCO3)c1C(=O)Nc1cccc(C(F)(F)F)c1	3120
Cn1ncc(NCc2ccc3c(c2)OCO3)c1C(=O)Nc1cccc(C(F)(F)F)c1	> 10000
Cn1cnc(NCc2ccc3c(c2)OCO3)c1C(=O)Nc1ccc(C(F)(F)F)cc1	2550

Target: T2, Vascular endothelial growth factor receptor 2
Assay: Inhibition of VEGFR2 by cell-based assay
Format: functional
Settings: not given

Compound	IC50 [nM]
Cn1ncc(NCc2ccncc2)c1C(=O)Nc1ccc(OC(F)(F)F)cc1	64
COc1ccc(NC(=O)c2c(NCc3ccncc3)ncn2C)cc1OC	57
CC(C)c1ccc(NC(=O)c2c(NCc3ccncc3)ncn2C)cc1	75
Cn1cnc(NCc2ccncc2)c1C(=O)Nc1ccc(Cl)cc1	1650
Cc1cc(NC(=O)c2c(NCc3ccncc3)ncn2C)ccc1C(F)(F)F	64
Cn1cnc(NCc2ccncc2)c1C(=O)Nc1ccc(C(C)(C)C)cc1	64
Cn1cnc(NCc2ccncc2)c1C(=O)Nc1ccc(Cl)c(C(F)(F)F)c1	170
Cn1cnc(NCc2ccc3c(c2)OCO3)c1C(=O)Nc1cccc(C(F)(F)F)c1	> 10000
Cn1ncc(NCc2ccncc2)c1C(=O)Nc1ccc(Cl)c(Cl)c1	82
Cn1ncc(NCc2ccc3c(c2)OCO3)c1C(=O)Nc1cccc(C(F)(F)F)c1	> 10000
Cc1cc(NC(=O)c2c(NCc3ccncc3)cnn2C)ccc1C(F)(F)F	69
Cn1cnc(NCc2ccncc2)c1C(=O)Nc1ccc(C(F)(F)F)c(Cl)c1	88
Cn1ncc(NCc2ccncc2)c1C(=O)Nc1ccc(C(F)(F)F)cc1	130
Cn1cnc(NCc2ccc3c(c2)OCO3)c1C(=O)Nc1ccc(C(F)(F)F)cc1	> 10000
Cn1ncc(NCc2ccncc2)c1C(=O)Nc1ccc(-c2ccccc2)cc1	> 10000
Cn1cnc(NCc2ccncc2)c1C(=O)Nc1ccc(Cc2ccccc2)cc1	> 10000
Cn1cnc(NCc2ccncc2)c1C(=O)Nc1cc(C(F)(F)F)cc(C(F)(F)F)c1	150
COc1ccc(NC(=O)c2c(NCc3ccncc3)cnn2C)cc1OC	91
Cn1cnc(NCc2ccncc2)c1C(=O)Nc1ccc2cn[nH]c2c1	> 10000

Compound	IC50 [nM]
Cc1noc(NCc2ccncc2)c1C(=O)Nc1ccc(Oc2ccccc2)cc1	> 10000
Cn1ncc(NCc2ccncc2)c1C(=O)Nc1ccc(Oc2ccccc2)cc1	> 10000
Cn1ncc(NCc2ccncc2)c1C(=O)Nc1ccc(C(F)(F)F)c(Cl)c1	79
Cc1noc(NCc2ccncc2)c1C(=O)Nc1ccc(-c2ccccc2)cc1	> 10000
Cn1cnc(NCc2ccncc2)c1C(=O)Nc1ccc(Cl)c(Cl)c1	96
Cn1cnc(NCc2ccncc2)c1C(=O)Nc1ccc(C(F)(F)F)c(C(F)(F)F)c1	110
Cn1cnc(NCc2ccncc2)c1C(=O)Nc1cnc2ccccc2c1	920
Cc1noc(NCc2ccncc2)c1C(=O)Nc1ccc(C(F)(F)F)c(Cl)c1	320
Cc1ccc(NC(=O)c2c(NCc3ccncc3)cnn2C)cc1C(F)(F)F	102
Cn1ncc(NCc2ccncc2)c1C(=O)Nc1cnc2ccccc2c1	1140
Cn1ncc(NCc2ccncc2)c1C(=O)Nc1ccc(C(C)(C)C)cc1	45
Cn1cnc(NCc2ccncc2)c1C(=O)Nc1cccc(OC(F)(F)F)c1	350
Cn1cnc(NCc2cccnc2)c1C(=O)Nc1cccc(C(F)(F)F)c1	> 10000
Cc1noc(NCc2ccncc2)c1C(=O)Nc1cccc(C(F)(F)F)c1	2270
Cc1ccc(NC(=O)c2c(NCc3ccncc3)ncn2C)c(F)c1	1250
Cc1noc(NCc2ccncc2)c1C(=O)Nc1cnc2ccccc2c1	3540
Cn1cnc(NCc2ccncc2)c1C(=O)Nc1cccc(Cl)c1	> 10000
Cn1cnc(NCc2ccncc2)c1C(=O)Nc1ccc(C(F)(F)F)cc1	9600

Tested on: not listed separately
Assay: Intrinsic permeability across Caco-2 cell monolayers
Settings: human

Compound	Papp [×10⁻⁶ cm/s]
Cn1ncc(NCc2ccncc2)c1C(=O)Nc1ccc(OC(F)(F)F)cc1	5.42
O=C(Nc1cnc2ccccc2c1)c1ccccc1NCc1ccncc1	2.88
COc1ccc(NC(=O)c2c(NCc3ccncc3)ncn2C)cc1OC	8.22
CC(C)c1ccc(NC(=O)c2c(NCc3ccncc3)ncn2C)cc1	6.2
Cc1ccc(NC(=O)c2c(NCc3ccncc3)ncn2C)cc1C(F)(F)F	5.93
Cn1cnc(NCc2ccncc2)c1C(=O)Nc1ccc(Cl)cc1	0.95
Cn1ncc([N+](=O)[O-])c1C(=O)O	5.4
Cc1cc(NC(=O)c2c(NCc3ccncc3)ncn2C)ccc1C(F)(F)F	7.1
Cn1cnc(NCc2ccncc2)c1C(=O)Nc1ccc(C(C)(C)C)cc1	7.55
Cn1cnc(NCc2ccncc2)c1C(=O)Nc1ccc(Cl)c(C(F)(F)F)c1	6.15
Cn1ncc(NCc2ccncc2)c1C(=O)Nc1ccc(Cl)c(Cl)c1	6.73
Cc1cc(NC(=O)c2c(NCc3ccncc3)cnn2C)ccc1C(F)(F)F	5.52
Cn1cnc(NCc2ccncc2)c1C(=O)Nc1ccc(C(F)(F)F)c(Cl)c1	3.6
Cn1cnc(NCc2ccncc2)c1C(=O)Nc1ccc(Cl)c(Cl)c1	7.03
Cn1ncc(NCc2ccncc2)c1C(=O)Nc1ccc(C(C)(C)C)cc1	6.25

Target: T2, Vascular endothelial growth factor receptor 2
Assay: Inhibition of VEGFR2 by [32P]ATP-competitive radioassay
Settings: not given

Compound	Ki [nM]
Cn1ncc(NCc2ccncc2)c1C(=O)Nc1ccc(OC(F)(F)F)cc1	170
Cc1cc(NC(=O)c2c(NCc3ccncc3)ncn2C)ccc1C(F)(F)F	160
Cn1cnc(NCc2ccncc2)c1C(=O)Nc1ccc(C(C)(C)C)cc1	200

Target: T2, Vascular endothelial growth factor receptor 2
Assay: Inhibition of VEGFR2 by HTRF assay
Settings: not given

Compound	IC50 [nM]
Cn1ncc(NCc2ccncc2)c1C(=O)Nc1ccc(OC(F)(F)F)cc1	730
COc1ccc(NC(=O)c2c(NCc3ccncc3)ncn2C)cc1OC	210
CC(C)c1ccc(NC(=O)c2c(NCc3ccncc3)ncn2C)cc1	180
Cc1ccc(NC(=O)c2c(NCc3ccncc3)ncn2C)cc1C(F)(F)F	340
Cn1cnc(NCc2ccncc2)c1C(=O)Nc1ccc(Cl)cc1	250
Cc1cc(NC(=O)c2c(NCc3ccncc3)ncn2C)ccc1C(F)(F)F	210
Cn1cnc(NCc2ccncc2)c1C(=O)Nc1ccc(C(C)(C)C)cc1	87
Cn1cnc(NCc2ccncc2)c1C(=O)Nc1ccc(Cl)c(C(F)(F)F)c1	950
Cn1ncc(NCc2ccncc2)c1C(=O)Nc1ccc(Cl)c(Cl)c1	250
Cc1cc(NC(=O)c2c(NCc3ccncc3)cnn2C)ccc1C(F)(F)F	330
Cn1cnc(NCc2ccncc2)c1C(=O)Nc1ccc(C(F)(F)F)c(Cl)c1	290
Cn1ncc(NCc2ccncc2)c1C(=O)Nc1ccc(C(F)(F)F)cc1	280
Cn1ncc(NCc2ccncc2)c1C(=O)Nc1ccc(-c2ccccc2)cc1	> 10000
Cn1cnc(NCc2ccncc2)c1C(=O)Nc1ccc(Cc2ccccc2)cc1	5570
Cn1cnc(NCc2ccncc2)c1C(=O)Nc1cc(C(F)(F)F)cc(C(F)(F)F)c1	740
COc1ccc(NC(=O)c2c(NCc3ccncc3)cnn2C)cc1OC	350
Cn1cnc(NCc2ccncc2)c1C(=O)Nc1ccc2cn[nH]c2c1	5730
Cc1noc(NCc2ccncc2)c1C(=O)Nc1ccc(Oc2ccccc2)cc1	> 10000

Compound	IC50 [nM]
Cn1ncc(NCc2ccncc2)c1C(=O)Nc1ccc(Oc2ccccc2)cc1	> 10000
Cn1ncc(NCc2ccncc2)c1C(=O)Nc1ccc(C(F)(F)F)c(Cl)c1	210
Cc1noc(NCc2ccncc2)c1C(=O)Nc1ccc(-c2ccccc2)cc1	> 10000
Cn1cnc(NCc2ccncc2)c1C(=O)Nc1ccc(Cl)c(Cl)c1	370
Cn1cnc(NCc2ccncc2)c1C(=O)Nc1ccc(C(F)(F)F)c(C(F)(F)F)c1	580
Cn1cnc(NCc2ccncc2)c1C(=O)Nc1cnc2ccccc2c1	230
Cc1noc(NCc2ccncc2)c1C(=O)Nc1ccc(C(F)(F)F)c(Cl)c1	560
Cc1ccc(NC(=O)c2c(NCc3ccncc3)cnn2C)cc1C(F)(F)F	660
Cn1ncc(NCc2ccncc2)c1C(=O)Nc1cnc2ccccc2c1	280
Cn1ncc(NCc2ccncc2)c1C(=O)Nc1ccc(C(C)(C)C)cc1	130
Cn1cnc(NCc2ccncc2)c1C(=O)Nc1cccc(OC(F)(F)F)c1	760
Cn1cnc(NCc2cccnc2)c1C(=O)Nc1cccc(C(F)(F)F)c1	> 10000
Cc1noc(NCc2ccncc2)c1C(=O)Nc1cccc(C(F)(F)F)c1	1560
Cc1ccc(NC(=O)c2c(NCc3ccncc3)ncn2C)c(F)c1	840
Cc1noc(NCc2ccncc2)c1C(=O)Nc1cnc2ccccc2c1	940
Cn1cnc(NCc2ccncc2)c1C(=O)Nc1cccc(Cl)c1	2060
Cn1cnc(NCc2ccncc2)c1C(=O)Nc1ccc(C(F)(F)F)cc1	1980

Target: T1, Vascular endothelial growth factor receptor 1
Assay: Inhibition of VEGFR1 by HTRF assay
Settings: not given
Target sequence in this assay (P17948 whole entry, looked up): as the sequence (P17948 whole entry) above

Compound	IC50 [nM]
Cn1ncc(NCc2ccncc2)c1C(=O)Nc1ccc(OC(F)(F)F)cc1	1870
COc1ccc(NC(=O)c2c(NCc3ccncc3)ncn2C)cc1OC	350
CC(C)c1ccc(NC(=O)c2c(NCc3ccncc3)ncn2C)cc1	270
Cc1ccc(NC(=O)c2c(NCc3ccncc3)ncn2C)cc1C(F)(F)F	610
Cn1cnc(NCc2ccncc2)c1C(=O)Nc1ccc(Cl)cc1	> 10000
Cc1cc(NC(=O)c2c(NCc3ccncc3)ncn2C)ccc1C(F)(F)F	510
Cn1cnc(NCc2ccncc2)c1C(=O)Nc1ccc(C(C)(C)C)cc1	110
Cn1cnc(NCc2ccncc2)c1C(=O)Nc1ccc(Cl)c(C(F)(F)F)c1	1260
Cn1ncc(NCc2ccncc2)c1C(=O)Nc1ccc(Cl)c(Cl)c1	360
Cc1cc(NC(=O)c2c(NCc3ccncc3)cnn2C)ccc1C(F)(F)F	560
Cn1cnc(NCc2ccncc2)c1C(=O)Nc1ccc(C(F)(F)F)c(Cl)c1	350
Cn1ncc(NCc2ccncc2)c1C(=O)Nc1ccc(C(F)(F)F)cc1	310
Cn1ncc(NCc2ccncc2)c1C(=O)Nc1ccc(-c2ccccc2)cc1	> 10000
Cn1cnc(NCc2ccncc2)c1C(=O)Nc1ccc(Cc2ccccc2)cc1	> 10000
Cn1cnc(NCc2ccncc2)c1C(=O)Nc1cc(C(F)(F)F)cc(C(F)(F)F)c1	1060
COc1ccc(NC(=O)c2c(NCc3ccncc3)cnn2C)cc1OC	510
Cn1cnc(NCc2ccncc2)c1C(=O)Nc1ccc2cn[nH]c2c1	> 10000
Cc1noc(NCc2ccncc2)c1C(=O)Nc1ccc(Oc2ccccc2)cc1	> 10000

Compound	IC50 [nM]
Cn1ncc(NCc2ccncc2)c1C(=O)Nc1ccc(Oc2ccccc2)cc1	> 10000
Cn1ncc(NCc2ccncc2)c1C(=O)Nc1ccc(C(F)(F)F)c(Cl)c1	440
Cc1noc(NCc2ccncc2)c1C(=O)Nc1ccc(-c2ccccc2)cc1	> 10000
Cn1cnc(NCc2ccncc2)c1C(=O)Nc1ccc(Cl)c(Cl)c1	550
Cn1cnc(NCc2ccncc2)c1C(=O)Nc1ccc(C(F)(F)F)c(C(F)(F)F)c1	690
Cn1cnc(NCc2ccncc2)c1C(=O)Nc1cnc2ccccc2c1	350
Cc1noc(NCc2ccncc2)c1C(=O)Nc1ccc(C(F)(F)F)c(Cl)c1	1110
Cc1ccc(NC(=O)c2c(NCc3ccncc3)cnn2C)cc1C(F)(F)F	930
Cn1ncc(NCc2ccncc2)c1C(=O)Nc1cnc2ccccc2c1	520
Cn1ncc(NCc2ccncc2)c1C(=O)Nc1ccc(C(C)(C)C)cc1	180
Cn1cnc(NCc2ccncc2)c1C(=O)Nc1cccc(OC(F)(F)F)c1	1110
Cn1cnc(NCc2cccnc2)c1C(=O)Nc1cccc(C(F)(F)F)c1	> 10000
Cc1noc(NCc2ccncc2)c1C(=O)Nc1cccc(C(F)(F)F)c1	1690
Cc1ccc(NC(=O)c2c(NCc3ccncc3)ncn2C)c(F)c1	1350
Cc1noc(NCc2ccncc2)c1C(=O)Nc1cnc2ccccc2c1	1220
Cn1cnc(NCc2ccncc2)c1C(=O)Nc1cccc(Cl)c1	3220
Cn1cnc(NCc2ccncc2)c1C(=O)Nc1ccc(C(F)(F)F)cc1	6000
